Results reported in US20240239774A1, “SOLUBLE ADENYLYL CYCLASE (SAC) INHIBITORS AND USES THEREOF” (Cornell University, priority 2021, published 2024).

What was measured:
[1] = tested on: human sperm; assay: Human sperm hyperactivation (CASA); format: cell-based; conditions: for hyperactivation of human sperm in vitro: capacitating media, inhibitor present; for inhibition of hyperactivation following dilution into inhibitor-free media: preincubation with 10 μM Example 1 or 100 nM Example 133, diluted 1:100
Protocol: For human sperm, hyperactivation was assessed via CASA following incubation for 1 hour in non-capacitating HTF buffer or capacitating HTF buffer supplemented with 25 mM HCO3 and 5 mg/ml BSA in the presence or absence of the indicated concentration of sAC inhibitor; 0.1% DMSO was used as vehicle control. For rescue experiments, sperm were incubated in the presence of 5 mM db-cAMP and 500 μM IBMX. 8 μl sperm suspension was placed onto a microscope slide (Gold Seal, Erie Scientific, Portsmouth, NH) and covered with a 18×18 mm coverslip (globe Scientific, Mahway, NJ) to create a […] imaging chamber. CASA was performed following analysis guidelines provided by the company, i.e., 30 frames were acquired at a rate of 60 Hz, at least 200 sperm were analyzed per condition. The following parameters were measured: mean path velocity (VAP, μm/sec), curvilinear velocity (VCL, μm/sec), straight-line velocity (VSL, μm/sec), amplitude of lateral head displacement (ALH, μm), and beat cross frequency (BCF, Hz). Human sperm were considered hyperactivated when presenting VCL ≥150 μm/sec, LIN <50%, and ALH ≥[…].
Motility parameters were determined 1 to 45 minutes post dilution, DMSO-treated non-capacitated and capacitated human sperm were used as control. To calculate the percentage of inhibition, the hyperactivation percentage of sperm diluted in inhibitor-containing- or inhibitor-free media was normalized to the hyperactivation percentage of vehicle-treated capacitated sperm at the respective time point and subtracted from 100%.

[2] = tested on: mouse sperm; assay: Flagellar beat analysis of single sperm; format: cell-based; conditions: stimulation with 25 mM NaHCO3; 5 μM Example 1 or 10 nM Example 133
Protocol: An inverted dark-field video microscope (IX73; Olympus) with a 10× objective (mouse sperm) and a 20× objective (human sperm) (UPLSAPO, NA 0.8; Olympus) was combined with a high-speed camera (ORCA Fusion; Hamamatsu). Dark-field videos were recorded with a frame rate of 200 Hz. The temperature of the heated stage was set to 37° C. (stage top incubator WSKMX; TOKAI HIT).
An inverted dark-field video microscope (IX73; Olympus) with a 10×objective (mouse sperm) or a 20×objective (human sperm) (UPLSAPO, NA 0.8; Olympus) was combined with a high-speed camera (ORCA Fusion; Hamamatsu). Dark-field videos were recorded with a frame rate of 200 Hz. The temperature of the heated stage was set to 37° C. (stage top incubator WSKMX; TOKAI HIT). The images were preprocessed with the imageJ plugin SpermQ Preparator (Gaussian blur with sigma 0.5 px; Subtract background method with radius 5 px) and analyzed using the ImageJ plugin SpermQ [Reference 84]. The beat frequency was determined from the highest peak in the frequency spectrum of the curvature time course, obtained by Fast Fourier Transform.

[3] = tested on: immobilized sAC protein; assay: Binding kinetics by surface plasmon resonance
Protocol: After coupling, remaining reactive groups on the chip's surface were blocked with 1 M ethanolamine followed by 350 mM EDTA to wash away any free Ni^2+. […] All experiments included reference channels; i.e., inhibitor run over parallel channels without immobilized protein. Binding kinetics were determined by subtracting responses in the reference channels from responses in the active channels. Curves were fitted, and kon and koff values were determined using the Biacore 8K Insight Evaluation Software Version 2.0 (Cytiva) and a 1:1 binding kinetics model.

[4] = tested on: mouse sperm; assay: Ex vivo sperm tyrosine phosphorylation (Western blot) from injected mice; format: in vivo; conditions: 50 mg/kg i.p., one hour post injection
Protocol: After 15 minutes swim-out at 37° C., sperm from two caudae were combined and counted using a hematocytometer. For capacitation, sperm were incubated for 90 minutes in TYH containing 3 mg/ml BSA and 25 mM NaHCO3 in a 37° C. incubator. To control for the consequences of dilution during isolation of epididyrnal mouse sperm for ex vivo assays, the ability for bicarbonate to induce a prototypical pattern of tyrosine phosphorylation (pY) which is a widely used molecular hallmark of capacitation was assessed [Reference 80]. Bicarbonate-induced pY is known to be sAC dependent in vitro [References 37, 46, 62]. For experiments studying sperm from injected mice, ‘swim out’ was performed in 200 μl TYH, which corresponded to a 1:10 dilution from epididymis ([…] in 200 μl buffer). Capacitation induced changes were assessed by adding 50 μl of ‘swim out’ sperm to increasing volumes of non-capacitating or capacitating TYH buffer.
Mouse sperm from vehicle or inhibitor-injected mice were isolated 1 hour from male mice injected (i.p.) with 150 μl of solution containing sAC inhibitor or vehicle. Sperm were diluted 1:20 to 1:1000 in capacitating TYH media. As control, sperm from vehicle-injected mice were diluted 1:1000 in non-capacitating and capacitating TYH buffer. The samples were incubated for 90 minutes, washed with 1 ml PBS and sedimented by centrifugation at 2,000×g for 3 minutes. The sedimented sperm were resuspended in 15 μl 2× Laemmli sample buffer [Reference 83], heated for 5 minutes at 95° C., supplemented with 8 μl β-mercaptoethanol and heated again for 5 minutes at 95° C. For Western blot analysis, proteins were transferred onto PVDF membranes (Thermo Scientific), probed with anti-phosphotyrosine antibodies, and analyzed using a cherniluminescence detection system. Image lab (Bio-Rad) was used for densitometric analysis of Western blots.

[5] = tested on: human sperm; assay: Flagellar beat analysis of single sperm; conditions: stimulation with 25 mM NaHCO3; 0.2 μM Example 1 (FIG. 13), 10 nM Example 133
Description: Motile sperm were allowed to swim up into the HTF layer, while immotile sperm, as well as other cells or tissue debris, did remain in the ejaculate fraction.

[6] = tested on: epididymal mouse sperm; assay: Ex vivo sperm motility (CASA) from injected mice; format: in vivo; conditions: for sperm motility ex vivo: one hour post-injection, diluted 1:200 in inhibitor-free media
Protocol: For ex vivo assessment of mouse sperm from inhibitor-injected mice, sperm (25 μl) isolated at the indicated time points (1 hour to 24 hours post-injection) were loaded on a […] Leja slide (Hamliton Thorne) and placed on a microscope stage at 37° C. Sperm movements of 10 fields of at least 500 sperm were examined using computer-assisted sperm analysis (CASA) via Hamilton-Thorne digital image analyzer (IVOS II, Hamilton Thorne Research, Beverly, MA) with the following parameters: 30 frames, frame rate: 60 Hz, cell size: 30-170 μm^2.

[7] = tested on: epididymal mouse sperm; assay: Ex vivo cAMP in epididymal sperm from injected mice; conditions: 50 mg/kg i.p.; for bicarbonate-induced cAMP increase ex vivo: sperm isolated one hour after injection, minimally diluted
Protocol: Sperm (50 μl) isolated at indicated time points (between 1 hour and 24 hours post-injection) were incubated in […] (1:20 dilution) or 450 μl (1:200 dilution) non-capacitating or capacitating TYH media for 12 minutes. Intracellular cAMP levels were quantified using the Direct cAMP ELISA (Enzo) as above.

[8] = swim out sperm minimally diluted

## Nc1nc(Cl)cc(-c2nn(C(F)F)cc2Cc2ccccc2OCCN2CCOC[C@H]2CO)n1 [Example 133]
[1]
  hyperactivation of human sperm in vitro: blocked hyperactivation
  inhibition of hyperactivation following dilution into inhibitor-free media: persisted
[2]
  bicarbonate-induced change in flagellar beating / beat frequency: more potent than Example 1
[3]
  off-rate (T1/2): 75.8 min
[4]; diluted 100 fold
  capacitation-induced tyrosine phosphorylation (pY) pattern ex vivo: remained blocked
[4]; [8]
  capacitation-induced tyrosine phosphorylation (pY) pattern ex vivo: blocked
[5]
  bicarbonate-induced change in flagellar beating / beat frequency: more potent than Example 1
[6]; 50 mg/kg i.p., 9 hours post injection, diluted 1:200
  sperm that recovered (progressive) motility: 20%
[6]; 50 mg/kg i.p.
  sperm motility ex vivo: essentially immotile
[6]; exogenous membrane-permeable cAMP rescued motility
  cytotoxicity to sperm: not cytotoxic
[7]; 9 hours post-injection, diluted 1:200
  cAMP responsiveness ex vivo following dilution: partially recovered
[7]; sperm isolated 1 hour or 4.5 hours post-injection, diluted 1:200
  cAMP response ex vivo following dilution: remained inhibited
[7]
  bicarbonate-induced cAMP increase ex vivo: absent

## Cc1c(Cc2ccccc2)c(-c2cc(Cl)nc(N)n2)nn1C [Example 1, 4-(4-benzyl-1,5-dimethyl-pyrazol-3-yl)-6-chloro-pyrimidin-2-amine]
[1]
  hyperactivation of human sperm in vitro: blocked hyperactivation
  inhibition of hyperactivation following dilution into inhibitor-free media: lost
[2]
  bicarbonate-induced change in flagellar beating / beat frequency: prevents bicarbonate-induced changes in flagellar beating pattern
[3]
  off-rate (T1/2): 0.333 min
[4]; diluted 25 fold
  capacitation-induced tyrosine phosphorylation (pY) pattern ex vivo: restored
[4]; [8]
  capacitation-induced tyrosine phosphorylation (pY) pattern ex vivo: blocked
[5]
  bicarbonate-induced change in flagellar beating / beat frequency: prevents bicarbonate-induced changes in flagellar beating pattern
[6]; 50 mg/kg i.p.
  sperm motility ex vivo: indistinguishable from sperm isolated from vehicle-injected mice
[7]; sperm diluted 1:200 ex vivo
  bicarbonate-responsive cAMP synthesis ex vivo: restored
[7]
  bicarbonate-induced cAMP increase ex vivo: absent
